Reference: doi:10.1101/2022.11.21.517375v1, “Fragment-Based Hit Discovery via Unsupervised Learning of Fragment-Protein Complexes” (biorxiv, 2022)
Like-named read-outs stand apart in the source and are kept apart here.

Tests used:
[1] = molecular target: T1, SARS-CoV-2 nsp3-Mac1 (HTRF assay) (Severe acute respiratory syndrome coronavirus 2, UniProt P0DTD1); assay: HTRF displacement of ADP-ribose-conjugated biotin peptide; assay type: binding
T1 construct: gene rep

[2] = molecular target: T2, SARS-CoV-2 main protease (Mpro) (Severe acute respiratory syndrome coronavirus 2, UniProt P0DTD1); assay: fluorescence protease assay, fluorogenic peptide, dose response; assay type: biochemical
T2 construct: gene rep

Mac1 (P43 crystals) = molecular target: T3, Mac1 (P43 crystals) (Severe acute respiratory syndrome coronavirus 2, UniProt P0DTD1); assay: X-ray crystallography, crystal soaking, PanDDA; assay type: binding; conditions: active site; P43 crystals soaked at 10 or 20 mM for 2-[…]
T3 construct: gene rep

## CCC(CNc1ncnc2[nH]cnc12)NC(=O)CCC1CCCCC1 (racemic) [Z5551425673]
[1]; read-out: % inhibition at 250 μM
  inhibition at 250 µM: 30.1%

## COc1ccc2c(C(=O)NNc3nc4ccccc4[nH]3)cc(=O)[nH]c2c1 [ALP-UNI-ed5cdfd2-1]
[2]
  IC50: 19.4 µM

## O=C(NNc1nc2ccccc2[nH]1)c1cc(=O)[nH]c2ccccc12 [WIL-UNI-d4749f31-37]
[2]; pH 7.3, 20 mM HEPES, 1.0 mM TCEP, 50 mM NaCl, 5 nM Mpro, 37 nM substrate, 15 min pre-incubation, room temperature, read-out: IC50
  IC50: 25.8 µM

## CCNc1nc2c(cnn2C)c(=O)[nH]1 [Z1102995175]
[1]; pH 7.0, 25 mM HEPES, 20 mM NaCl, […] protein, 400 nM peptide, room temperature
  % inhibition at 250 μM: 24.8%

## CC[C@@H](CNc1ncnc2[nH]cnc12)NC(=O)CCC1CCCCC1 [Z5551425673 (S-stereoisomer)]
Mac1 (P43 crystals)
  X-ray crystallography, crystal soaking, PanDDA: structure of Z5551425673 (as the S-stereoisomer) bound to the active site
